Laboratory results published in US20120040956A1, “INHIBITORS OF HIF-1 PROTEIN ACCUMULATION” (INTERMED DISCOVERY GMBH, priority 2008, published 2012).

What was measured:
HIF-1α mRNA = assay: Hif-1α mRNA expression by real-time PCR; assay type: cell-based; settings: human cells, 250 nM for 3 h, normoxic or hypoxic (45 minutes, 1% O2)
Experimental: In order to investigate whether the compounds of the invention do exert their HIF-1-1 suppressive action via inhibition of HIF-1-1 transcription the compounds were tested for their effects on HIF-1α mRNA production. In all experiments, human cells were exposed to efficiently blocking concentrations (250 nM) of the test compounds for 3 h. Then cells were further cultivated under normoxic or hypoxic conditions (45 minutes, 1% O2) respectively. Afterwards cell samples were harvested and RNA was extracted. cDNA was synthesized using specific primers and the PE Applied Biosystems Reverse Transcription Reagents. Real-time PCR was performed by using the SYBR Green I detection chemistry (Applied Biosystems) and an ABI Prism 7300 system. The expression of Hif-1α was quantified and results were normalized to Hprt1 and β-Actin (“housekeeping-gene”) expression. The relative abundance of the different genes was calculated by the comparative CT method. HIF-1α transcription of normoxic control cells was arbitrarily set to 1. […] Therefore an effect of IMD-compounds on HIF-1-dependent gene expression seems not to be mediated on HIF-1α transcription (FIG. 5).

IKKy/NEMO = assay: Cellular protein translation in 293T cells (anti-IKKy/NEMO immunoblotting); assay type: cell-based, human; settings: 100 nM, 10 h and 24 h
Experimental: 293T cells were grown in the presence of the known translation inhibitor cycloheximide (10 μg/ml) and 100 nM of IMD-019064, IMD-026259 and IMD-026260 respectively. […] Cells were harvested after 10 h and 24 h and cell lysates were produced. Equal amounts of protein contained in the cell lysates were used for immunoblotting with anti-IKKy/NEMO antibodies as shown in FIG. 12. IKKy/NEMO is a constitutively expressed relatively labile protein. Thus successful inhibition of cellular protein translation should result in significant decline of anti-IKKy/NEMO signal.

[1] = test system: cell-free protein translation (BMV mRNA, ribosomes); assay: Cell-free protein translation of Brome mosaic virus (BMV) mRNA with ribosomes; assay type: biochemical; settings: relevant (nM) concentrations, SDS-PAGE
Experimental: The effect of IMD-019064 on cell-free protein translation in vitro was investigated (see also assay principle in FIG. 8). Brome mosaic virus (BMV) mRNA encoding for 4 different viral proteins was incubated with ribosomes in the presence and absence of IMD-019064 (FIG. 9a), IMD-026259, IMD-026260 (FIG. 9b), or cycloheximide (Chx, 10 μM) (positive control) and the formed proteins analyzed by SDS-PAGE.
Panels show representative SDS-PAGE protein gels. Vehicle-containing translation reactions (Veh) represent 100% translation efficacy, while Cycloheximide (Chx; 10 μg/ml) a known inhibitor of protein translation that was used as a positive control does show significant protein reduction.

HIF-1α protein = assay: Hypoxia induced HIF-1α protein accumulation in 293T cells (immunoblotting); assay type: cell-based, human; settings: 250 nM, 1 h preincubation, hypoxia 4 h, 1% O2
Experimental: Effects of IMD-026259, IMD-026260 and IMD-019064 on the stabilisation/accumulation of HIF-1α protein were investigated. 293T cells were preincubated with the indicated concentrations of all three compounds. After 1 h of pre-incubation, 293T cells were pre-incubated with the indicated concentrations of compounds and then further incubated under normoxic or hypoxic (4 h, 1% O2) conditions respectively. After lysis of cells in 1×SDS sample buffer and sonication, the samples were analyzed for HIF-1α abundance by immunoblotting.

HUVEC = assay: Spheroid-based angiogenesis assay, Deferoxamine (hypoxia) induced HUVEC sprouting; assay type: cell-based, human
Experimental: Prior application the stock solution [100 mM] of IMD-019064 was diluted 1:10 in DMSO and serially diluted in half logarithmic steps covering the concentration range from 10 mM to 1 μM using 100% DMSO. The final assay concentration ranged from 100 μM to 10 nM with a final DMSO concentration in the assay of 1%. The experiments were pursued in modification of the originally published protocol (Korff and Augustin: J Cell Sci 112: 3249-58, 1999). In brief, spheroids were prepared as described by Korff and Augustin: J Cell Biol 143: 1341-52, 1998) by pipetting 500 endothelial cells (EC) in a hanging drop on plastic dishes to allow overnight spheroid aggregation. 50 EC spheroids were then embedded in 0.9 ml of a 3D collagen matrix and pipetted into individual wells of a 24 well plate to allow polymerization.
Plates were incubated at 37° C. for 24 hours and fixed by adding 4% paraformaldehyde. The cumulative sprout length of 10 randomly selected spheroids per data point was analyzed and the relative inhibition by the test compound determined. Fitting of IC50 curves and calculation of IC50 values was performed with GraphPad Prism 5.01. Sprouting intensity of EC and fibroblast spheroids was quantitated by an image analysis system using an inverted microscope and the digital imaging software Analysis 3.2 (Soft imaging system, Munster, Germany). In parallel NHDF (fibroblast) spheroids were embedded in a 3D collagen gel and treated for 24 h with different concentrations of IMD-019064. The cumulative sprout length of 10 randomly selected spheroids per data point was analyzed according to the procedure used for the HUVEC experiment.
The same assays were performed with IMD-026260; IMD-026259; Sutent® (Sunitinib) and Sorafenib (Nexavar®) (see Table 3 for final compound concentrations).

HIF-1 = assay: HIF-1-dependent luciferase reporter gene activity in 293T cells under hypoxia; assay type: cell-based, human
Experimental: A HIF-1-dependent luciferase reporter gene was transfected into 293T cells by transfection with Rotifect™ (Trademarked by Carl Roth GmbH; Karlsruhe, Germany) or alternatively into Jurkat T cells by electroporation. Both cell lines were transfected with a HIF-1-dependent reporter gene. The next day, cells were preincubated for 1 h with the indicated, submicromolar concentrations of the test compounds and then incubated for further 8 h under normoxic or hypoxic (1% O2) conditions. After that, cells were harvested followed by the analysis of luciferase activity in a luminometer.
A HIF-1-dependent luciferase reporter gene was transfected into 293T cells. The next morning, cells were pretreated for 1 h with the indicated concentrations of compounds, followed by induction of hypoxia (hypoxia chamber) for 8 h. Subsequently cells were harvested and lyzed. Luciferase activity in cell extracts was measured in a luminometer (Duo Lumat LB 9507, Berthold) by injecting 20 microliter of assay buffer to 20 microliter of extract. Light emission was measured for 10 s, relative light units are given.
After transfection of 293T cells with a HIF-1-dependent luciferase reporter gene, cells were further incubated under normoxic or hypoxic (8 h, 1% O2) conditions as shown in FIG. 4. Effectively blocking concentrations of the IMDs (250 nM each) were added either 1 hour prior to hypoxia or 2 and 4 hours after induction of hypoxia.

Compound: CNCCOc1ccc2c(c1)OC1(c3ccc(Cl)cc3)C(c3ccccc3)CC(O)C21O (centres unmarked) [IMD-026260, (1,3a,8b)-3a-(4-chlorophenyl)-6-(2-(methylamino)ethoxy)-3-phenyl-2,3,3a,8b-tetrahydro-1H-benzo[d]cyclopenta[b]furan-1,8b-diol]
- effect on Hif-1α mRNA production (HIF-1α mRNA): did not show any effects
- anti-IKKy/NEMO signal (cellular protein translation) (IKKy/NEMO): did not result in reduced anti-IKKy/NEMO signals
- effect on in vitro protein translation [1]: No significant effect
- block of HIF-1α protein accumulation (HIF-1α protein): almost completely block
- IC50 (HUVEC; Homo sapiens, HUVEC, Deferoxamine 100 μM, 24 hours, collagen matrix, read-out: IC50, hypoxia induced EC (HUVEC) sprouting): 13 nM
- difference in HUVEC and fibroblast sensitivity (HUVEC; NHDF IC50 versus Deferoxamine-induced HUVEC IC50): greater than thirteen-fold
- time-dependency of inhibition of HIF-1-dependent luciferase expression (HIF-1; 250 nM, added 4 hours after induction of hypoxia (8 h, 1% O2)): able to inhibit HIF-1-dependent luciferase expression even when added 4 hours after hypoxic induction
- IC50 (HIF-1; Homo sapiens, HEK-293T, 1 h pretreatment, hypoxia 8 h, read-out: IC50, HIF-1 luciferase inhibitory activity): 18 nM
